Measurements reported in patent publication US7473688B2, “Indolobenzazepine HCV NS5B inhibitors” (Bristol-Myers Squibb Company, priority 2005, dated 2009).
Like-named read-outs stand apart in the source and are kept apart here.

Experiments:
[1] = test system: HCV replicon; test: HCV replicon FRET assay; format: cell-based; conditions: Hepatitis C virus, FRET assay, read-out: EC50*
Description: FRET Assay Preparation. To perform the HCV FRET screening assay, 96-well cell culture plates were used. The FRET peptide (Anaspec, Inc.) (Taliani et al., Anal. Biochem. 1996, 240, 60-67) contains a fluorescence donor, EDANS, near one end of the peptide and an acceptor, DABCYL, near the other end. The fluorescence of the peptide is quenched by […] resonance energy transfer (RET) between the donor and the acceptor, but as the NS3 protease cleaves the peptide the products are released from RET quenching and the fluorescence of the donor becomes apparent. The assay reagent was made as follows: 5× cell Luciferase cell culture lysis reagent from Promega (#E153A) diluted to 1× with dH2O, NaCl added to 150 mM final, the FRET peptide diluted to 20 uM final from a 2 mM stock.
To prepare plates, HCV replicon cells, with or without a Renilla luciferase reporter gene, were trypsinized and placed into each well of a 96-well plate with titrated test compounds added in columns 3 through 12; columns 1 and 2 contained a control compound (HCV protease inhibitor), and the bottom row contained cells without compound. The plates were then placed in a CO2 incubator at 37° C.
Assays. Subsequent to addition of the test compounds described above (FRET Assay Preparation), at various times the plate was removed and Alamar blue solution (Trek Diagnostics, #00-100) was added per well as a measure of cellular toxicity. After reading in a Cytoflour 4000 instrument (PE Biosystems), plates were rinsed with PBS and then used for FRET assay by the addition of 30 ul of the FRET peptide assay reagent described above (FRET Assay Preparation) per well. The plate was then placed into the Cytoflour 4000 instrument which had been set to 340 excite/490 emission, automatic mode for 20 cycles and the plate read in a kinetic mode. Typically, the signal to noise using an endpoint analysis after the reads was at least three-fold. Alternatively, after Alamar blue reading, plates were rinsed with PBS, 50 ul of DMEM (high glucose) without phenol red was added and plates were then used for luciferase assay using the Promega Dual-Glo Luciferase Assay System.
Compound analysis was determined by quantification of the relative HCV replicon inhibition and the relative cytotoxicity values. To calculate cytoxicity values, the average Alamar Blue fluorescence signals from the control wells were set as 100% non-toxic. The individual signals in each of the compound test wells were then divided by the average control signal and multiplied by 100% to determine […]. To calculate the HCV replicon inhibition values, an average background value was obtained from the two wells containing the highest amount of HCV protease inhibitor at the end of the assay period. These numbers were similar to those obtained from naïve Huh-7 cells.
The background numbers were then subtracted from the average signal obtained from the control wells and this number was used as 100% activity. The individual signals in each of the compound test wells were then divided by the averaged control values after background subtraction and multiplied by 100% to determine percent activity. EC50 values for a protease inhibitor titration were calculated as the concentration which caused a 50% reduction in FRET or luciferase activity. The two numbers generated for the compound plate, percent cytoxicity and percent activity were used to determine compounds of interest for further analysis.

[2] = molecular target: T1, HCV NS5B (Hepatitis C virus genotype 1b, UniProt Q9WMX2); test: HCV NS5B RdRp enzyme assay (preincubation protocol); format: biochemical
T1 construct: The protein was expressed with an 18 amino acid C-terminal truncation to enhance the solubility; made in house; host or cells: E. coli BL21 (DE3), pET21a
Protocol: HCV NS5B RdRp cloning, expression, and purification. The cDNA encoding the NS5B protein of HCV, genotype 1b, was cloned into the pET21a expression vector. The protein was expressed with an 18 amino acid C-terminal truncation to enhance the solubility. The E. coli competent cell line BL21 (DE3) was used for expression of the protein. Cultures were grown at 37° C. for ˜4 hours until the cultures reached an optical density of 2.0 at 600 nm. The cultures were cooled to 20° C. and induced with 1 mM IPTG. Fresh ampicillin was added to a final concentration of 50 μg/ml and the cells were grown overnight at 20° C.
Cell pellets (3L) were lysed for purification to yield 15-24 mgs of purified NS5B. The lysis buffer consisted of 20 mM Tris-HCl, pH 7.4, 500 mM NaCl, 0.5% triton X-100, 1 mM DTT, 1 mM EDTA, 20% glycerol, 0.5 mg/ml lysozyme, 10 mM MgCl2, 15 ug/ml deoxyribonuclease I, and Complete TM protease inhibitor tablets (Roche). After addition of the lysis buffer, frozen cell pellets were resuspended using a tissue homogenizer. To reduce the viscosity of the sample, aliquots of the lysate were sonicated on ice using a microtip attached to a Branson sonicator. The sonicated lysate was centrifuged at 100,000×g for 1 hr at 4° C. and filtered through a 0.2 μm filter unit (Corning).
The protein was purified using three sequential chromatography steps: Heparin sepharose CL-6B, polyU sepharose 4B, and Hitrap SP sepharose (Pharmacia). The chromatography buffers were identical to the lysis buffer but contained no lysozyme, deoxyribonuclease I, MgCl2 or protease inhibitor and the NaCl concentration of the buffer was adjusted according to the requirements for charging the protein onto the column. Each column was eluted with a NaCl gradient which varied in length from 5-50 column volumes depending on the column type. After the final chromatography step, the resulting purity of the enzyme is >90% based on SDS-PAGE analysis. The enzyme was aliquoted and stored at −80° C.
Standard HCV NS5B RdRp enzyme assay. HCV RdRp genotype 1b assays were run in a final volume of 60 μl in 96 well plates (Costar 3912). The assay buffer is composed of 20 mM Hepes, pH 7.5, 2.5 mM KCl, 2.5 mM MgCl2, 1 mM DTT, 1.6 U RNAse inhibitor (Promega N2515), 0.1 mg/ml BSA (Promega R3961), and 2% glycerol. All compounds were serially diluted (3-fold) in DMSO and diluted further in water such that the final concentration of DMSO in the assay was 2%. HCV RdRp genotype 1b enzyme was used at a final concentration of 28 nM. A polyA template was used at 6 nM, and a biotinylated oligo-dT12 primer was used at 180 nM final concentration. Template was obtained commercially (Amersham 27-4110). Biotinylated primer was prepared by Sigma Genosys. 3H-UTP was used at 0.6 μCi (0.29 μM total UTP). Reactions were initiated by the addition of enzyme, incubated at 30° C. for 60 min, and stopped by adding […] of 50 mM EDTA containing SPA beads (4 μg/μl, Amersham RPNQ 0007). Plates were read on a Packard Top Count NXT after >1 hr incubation at room temperature.
Modified HCV NS5B RdRp enzyme assay. A modified enzyme assay was performed essentially as described for the standard enzyme assay except for the following: The biotinylated oligo dT12 primer was precaptured on streptavidin-coated SPA beads by mixing primer and beads in assay buffer and incubating at room temperature for one hour. Unbound primer was removed after centrifugation. The primer-bound beads were resuspended in 20 mM Hepes buffer, pH 7.5 and used in the assay at final concentrations of […] primer and 0.67 μg/μl beads. Order of addition in the assay: Enzyme (14 nM) was added to diluted compound followed by the addition of a mixture of template (0.2 nM), 3H-UTP (0.6 μCi, 0.29 μM), and primer-bound beads, to initiate the reaction; concentrations given are final. Reactions were allowed to proceed for 4 hours at 30° C.
IC50 values for compounds were determined using seven different [I]. […]

T1 sequence (Q9WMX2 2420-2992): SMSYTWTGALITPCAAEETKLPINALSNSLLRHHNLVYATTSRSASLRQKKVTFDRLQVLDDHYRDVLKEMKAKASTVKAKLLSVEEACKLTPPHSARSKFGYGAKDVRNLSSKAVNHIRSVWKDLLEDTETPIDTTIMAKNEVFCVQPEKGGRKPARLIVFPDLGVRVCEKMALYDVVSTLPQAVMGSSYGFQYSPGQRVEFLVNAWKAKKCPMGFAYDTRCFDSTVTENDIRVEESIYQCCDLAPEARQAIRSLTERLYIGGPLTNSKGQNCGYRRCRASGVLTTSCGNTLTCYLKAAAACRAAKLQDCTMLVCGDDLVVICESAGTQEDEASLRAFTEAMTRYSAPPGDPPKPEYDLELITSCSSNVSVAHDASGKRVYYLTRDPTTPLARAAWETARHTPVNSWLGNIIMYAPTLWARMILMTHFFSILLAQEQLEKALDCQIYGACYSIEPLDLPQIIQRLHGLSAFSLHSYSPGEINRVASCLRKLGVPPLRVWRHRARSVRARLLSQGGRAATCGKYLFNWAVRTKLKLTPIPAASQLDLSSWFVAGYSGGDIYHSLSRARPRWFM

Row | SMILES | EC50 ([1]; Table 1) [µM] | IC50 ([2]; Table 1a, read-out: IC50*) [µM] | other results
1 | CS(=O)(=O)NC(=O)c1ccc2c(C3CCCCC3)c3n(c2c1)CC(C(=O)N1CCC(N2CCCC2=O)CC1)=Cc1ccccc1-3 | 1 to 10 |  | IC50 ([2]; Table 1, read-out: IC50*): 0.01 to 1 µM
2 | CN1CCCC(CN(C)C(=O)C2Cc3ccccc3-c3c(C4CCCCC4)c4ccc(C(=O)NS(=O)(=O)N(C)C)cc4n3C2)C1 (stereo not drawn) | < 0.02 |  | IC50 ([2]; Table 1, read-out: IC50*): 0.01 to 1 µM
3 | O=C(O)c1ccc2c(C3CCCCC3)c3n(c2c1)CC(C(=O)N1CCC(N2CCCC(F)(F)C2)CC1)=Cc1ccccc1-3 | 0.07 to 1 |  | IC50 ([2]; Table 1, read-out: IC50*): 0.01 to 1 µM
4 | CN(C)S(=O)(=O)NC(=O)c1ccc2c(C3CCCCC3)c3n(c2c1)CC(C(=O)N1CCn2cnnc2C1)=Cc1ccccc1-3 | 1 to 10 |  | IC50 ([2]; Table 1, read-out: IC50*): 0.01 to 1 µM
5 | CN(C)C(=O)CN(C)C(=O)C1=Cc2ccccc2-c2c(C3CCCCC3)c3ccc(C(=O)Nc4ccccn4)cc3n2C1 |  |  | EC50 ([1]; Table 1b): 1 to 10 µM; IC50 ([2]; Table 1b, read-out: IC50*): 0.02 to 1 µM
6 | O=C1CCCN(C(=O)C2=Cc3ccccc3-c3c(C4CCCCC4)c4ccc(C(=O)O)cc4n3C2)N1 | 1 to 10 |  | IC50 ([2]; Table 1, read-out: IC50*): 0.01 to 1 µM
7 | O=C(NS(=O)(=O)C(F)(F)F)c1ccc2c(C3CCCCC3)c3n(c2c1)CC(C(=O)N1CCOCC1)=Cc1ccccc1-3 | 1 to 10 |  | IC50 ([2]; Table 1, read-out: IC50*): 0.01 to 1 µM
8 | COc1ccc2c(c1)C=C(C(=O)N1CCOCC1)Cn1c-2c(C2CCCCC2)c2ccc(C(=O)NS(=O)(=O)N3CCC3)cc21 |  |  | EC50 ([1]; Table 1b): 0.03 to 1 µM; IC50 ([2]; Table 1b, read-out: IC50*): 0.02 to 1 µM
9 | COC(=O)c1ccc2c(C3CCCCC3)c3n(c2c1)CC(C(=O)Nc1nccs1)=Cc1ccccc1-3 | 1 to 10 |  | 
10 | COC(=O)c1ccc2c(C3CCCCC3)c3n(c2c1)CC(C(=O)N1CCC(N2C(=O)Cc4ccccc42)CC1)=Cc1ccccc1-3 | 1 to 10 |  | 
11 | COC(=O)c1ccc2c(C3CCCCC3)c3n(c2c1)CC(C(=O)N1CCC(N2CCOCC2)CC1)=Cc1ccc(Cl)cc1-3 | 1 to 10 |  | 
12 | COC(=O)c1ccc2c(C3CCCCC3)c3n(c2c1)CC(C(=O)N1CC[C@@H](F)C1)=Cc1ccccc1-3 | > 0.37 |  | 
13 | COC(=O)c1ccc2c(C3CCCCC3)c3n(c2c1)C/C(=N/O)Cc1ccccc1-3 | > 10 |  | 
14 | O=C(O)c1ccc2c(C3CCCCC3)c3n(c2c1)CC(C(=O)N1CCOC(CO)C1)=Cc1cc(F)ccc1-3 (stereo not drawn) |  |  | IC50 ([2]; Table 1b, read-out: IC50*): 0.02 to 1 µM
15 | COC(=O)c1ccc2c(C3CCCCC3)c3n(c2c1)CC(NC(=O)C1CCOCC1)Cc1ccccc1-3 (stereo not drawn) |  | > 1 | 
16 | COc1ccc2c(c1)C=C(C(=O)N1CCC[C@H](OC(C)=O)C1)Cn1c-2c(C2CCCCC2)c2ccc(C(=O)NS(=O)(=O)N(C)C)cc21 |  | 0.01 to 1 | 

Row | SMILES | EC50 ([1]; Table 1) [µM] | IC50 ([2]; Table 1a, read-out: IC50*) [µM] | other results
17 | COc1ccc2c(c1)CC(C(=O)N(C)CC1CCCO1)Cn1c-2c(C2CCCCC2)c2ccc(C(=O)O)cc21 (stereo not drawn) |  | 0.01 to 1 | 
18 | COc1ccc2c(c1)CC(N(C)C(=O)C1CCOCC1)Cn1c-2c(C2CCCCC2)c2ccc(C(=O)NS(=O)(=O)N(C)C)cc21 (stereo not drawn) |  | 0.01 to 1 | 
19 | COc1ccc2c(c1)C=C(C(=O)N1CCC(O)(c3cccnc3)CC1)Cn1c-2c(C2CCCCC2)c2ccc(C(=O)NS(=O)(=O)N(C)C)cc21 |  | 0.01 to 1 | 
20 | COc1ccc2c(c1)C=C(C(=O)N(C)CC(=O)N1CCOCC1)Cn1c-2c(C2CCCCC2)c2ccc(C(=O)NS(=O)(=O)N(C)C)cc21 |  | 0.01 to 1 | 
21 | CNC(=O)CNC(=O)C1=Cc2cc(OC)ccc2-c2c(C3CCCCC3)c3ccc(C(=O)O)cc3n2C1 |  | 0.01 to 1 | 
22 | CN(C)S(=O)(=O)NC(=O)c1ccc2c(C3CCCCC3)c3n(c2c1)CC(C(=O)N1CCC(F)CC1)=Cc1ccccc1-3 [drawing 74] |  |  | IC50 ([2]; Table 1, read-out: IC50*): 0.01 to 1 µM
23 | CN(C)S(=O)(=O)NC(=O)c1ccc2c(C3CCCCC3)c3n(c2c1)CC(NC(=O)N1CCOCC1)Cc1ccccc1-3 (stereo not drawn) [drawing 153] |  |  | IC50 ([2]; Table 1, read-out: IC50*): 0.01 to 1 µM
24 | COC(=O)c1ccc2c(C3CCCCC3)c3n(c2c1)CC(C(=O)N1CCC(NC(C)=O)CC1)=Cc1ccccc1-3 | 1 to 10 |  | 
25 | CNC(=O)CNC(=O)C1=Cc2cc(OC)ccc2-c2c(C3CCCCC3)c3ccc(C(=O)NS(=O)(=O)N(C)C)cc3n2C1 |  | 0.01 to 1 | 
26 | COC(=O)c1ccc2c(C3CCCCC3)c3n(c2c1)CC(C(=O)NCC=O)=Cc1cc(OC)ccc1-3 |  |  | IC50 ([2]; Table 1b, read-out: IC50*): 0.02 to 1 µM
27 | COc1ccc2c(c1)C=C(C(=O)N(C)CC(=O)O)Cn1c-2c(C2CCCCC2)c2ccc(C(=O)O)cc21 |  | 0.01 to 1 | 
28 | COc1ccc2c(c1)C=C(C(=O)N1CCN(C(=O)N3CCCCC3)CC1)Cn1c-2c(C2CCCCC2)c2ccc(C(=O)NS(=O)(=O)N(C)C)cc21 |  | 0.01 to 1 | 
29 | COc1ccc2c(c1)C=C(C(=O)N(C)[C@H](C)C(=O)N(C)C)Cn1c-2c(C2CCCCC2)c2ccc(C(=O)NS(=O)(=O)N(C)C)cc21 |  |  | IC50 ([2]; Table 1b, read-out: IC50*): < 0.02 µM
30 | COc1ccc2c(c1)C=C(C(=O)N1CCN(c3ccccc3OC)CC1)Cn1c-2c(C2CCCCC2)c2ccc(C(=O)NS(=O)(=O)N(C)C)cc21 |  | 0.01 to 1 | 
31 | O=C(NCc1cnn[nH]1)c1ccc2c(C3CCCCC3)c3n(c2c1)CC(C(=O)N1CCC(N2CCOCC2)CC1)=Cc1ccccc1-3 [drawing 204] |  |  | IC50 ([2]; Table 1, read-out: IC50*): 0.01 to 1 µM
